Test results taken from US20120258938A1, “Enzymatic Production or Chemical Synthesis and Uses for 5,7-Dienes and UVB Conversion Products Thereof” (priority 2008, published 2012).

What was measured:
HaCaT keratinocytes [1] = experiment: [3H]-thymidine DNA synthesis in HaCaT keratinocytes; assay type: cell-based, human
Procedure: HaCaT keratinocytes were plated in 96-well plates at the density of 10,000 cells/well in DMEM (Cellgro, Herndon Va.) containing 5% charcoal treated fetal bovine serum (Hyclone, Logan, Utah), 1% antibiotic solution (PSA, Sigma, St. Louis, […].). Next day, media were changed and vehicle (ethanol) or secosteroids added. Cells were incubated with compounds for 48 hours. [^3H]-thymidine (Amersham Biosciences, Picataway, N.Y.) was added to the final concentration of 1 μCi/mL medium for last 12 hours of incubation. Media were then discarded, cells detached with trypsin and harvested on a glass fiber filter (Packard, Meriden, Calif.). Radioactivity was measured with a beta counter (Direct Beta-Counter Matrix 9600; Packard).
(§1) To measure DNA synthesis, keratinocytes, melanoma or prostate cancer cells were plated in 96-well plates. After overnight incubation tested compounds were added to the medium to achieve final concentrations 10^−7-10^−10 [M]. 100 μl of medium per well containing vitamin D3 compound was added to the cells. After 36 hours of incubation [3H]-thymidine (specific activity 88.0 Ci/mmol; Amersham Biosciences, Picataway, N.Y., USA) was added at 1 μCi/mL medium. After 12 hours, media were discarded, cells detached with trypsin and harvested on a glass fiber filter (Packard, Meriden, Calif., USA). 3H-radioactivity was measured with a beta counter (Direct Beta-Counter Matrix 9600; Packard).
HaCaT keratinocytes were plated out in 24-well plates, 50,000 cells/well. […] After 4 h media were discarded, cells washed with cold phosphate-buffered saline and incubated in 10% trichloroacetic acid for 30 min. Cells were washed again with phosphate-buffered saline, 100 μl 1.0 M NaOH was added to each well and plates incubated for 30 min at 30° C. The supernatant was collected and the ^3H-radioactivity measured by scintillation counting using a Direct Beta-Counter Matrix 9600 (Packard). The [^3H]-thymidine incorporation into DNA was measured separately for each well and the results entered into the calculation as the mean of 6 wells for each condition in a series of six experiments (n=36). Data were analyzed with GraphPad Prizm Version 4.0 (GraphPad Software Inc., San Diego, Calif., USA) using t tests. Differences were considered significant when p<0.05.

HaCaT keratinocytes [2] = assay type: cell-based, human
Procedure: The cells were seeded in 96-well plate in F10 medium. Following 48 to 96 h incubation cells were fixed with 10% trichloroacetic acid, washed and then incubated with 0.04% sulforhodamine B (in 1% acetic acid) for 30 min. Following second wash with 1% acetic acid, dye incorporated into the cells was solubilized in 10 mM Tris by shaking for 30 min and the absorbance was measured at 570 nm.
Cells are treated with the test compound, washed, fixed and stained with the Sulphorhodamine B dye (SRB). The incorporated dye is then liberated from the cells in a tris-base solution. An increase or decrease in the number of cells (total biomass) results in a concomitant change in the amount of dye incorporated by the cells in the culture. Cells were seeded in growth medium at 10,000 per well in 96-well plates. After 12 h of culture the medium was changed to 5% charcoal-treated serum and cells cultured for a further 47 h with serial dilutions of 1α,20-dihydroxycholecalciferol (diluted as for as for thymidine incorporation). […] was then added to a final concentration of 20% from a 50% stock and cells incubated for 1 h. Cells were stained with SRB 0.4% (Sigma), washed with 1% acetic acid and dried. Trsi-HCl was added and the absorbance measured at 565 nm. The absorbance of blank medium only, was also measured also at 690 nm.

CYP24 = experiment: Real-time RT PCR CYP24 mRNA in HaCaT keratinocytes; assay type: cell-based, human
Procedure: RNA was extracted as above. Reverse transcription was performed with Transcriptor First Strand cDNA Synthesis Kit (Roche, Nutley, N.J.). The primers (right: 5′-GCA GCT CGA CTG GAG TGA C-3′ (SEQ ID NO: 1) and left: 5′-CATCATGGCCATCAAAACAAT-3′(SEQ ID NO: 2)) and probe (cat. no. 04689135001) were designed with Universal Probe Library (Roche, Nutley, N.J.). Real-time PCR was performed using TaqMan PCR Master Mix at 50° C. for 2 min, 95° C. for 10 min and then 50 cycles (95° C. for 15 sec, 60° C. for 1 min). The data was collected on a Roche Light Cycler 480. The amounts of CYP24 were normalized using cyclophilin D as a housekeeping gene with comparative CT method.
The RNA from HaCaT keratinocytes treated with 1α,20-dihydroxycholecalciferol was isolated and RT PCR run as described in Example 1.

involucrin [3] = experiment: Real-time RT PCR involucrin mRNA, normal human epidermal keratinocytes; assay type: cell-based; details: 10^−7 M, time dependant
Procedure: RNA was extracted using an Absolutely RNA RT-PCR Miniprep Kit (Stratagene, La Jolla, Calif.). Real time PCR and reverse transcription products were purchased from Applied Biosystems, Foster City, Calif. Reverse transcription was performed using Taqman® Reverse Transcription Reagents. The following PCR products were used: cytokeratin 14: Hs00265033_m1, involucrin: Hs00846307_s1, CYP27A1: Hs00168003_ml, CYP27B1: Hs00168017_ml, 18SrRNA: Hs99999901_s1. The reaction was performed with Taqman® Universal PCR Master Mix; data were collected on an ABI Prism 7700 and analyzed on Sequence Detector 1.9.1. Specific gene amounts were related to 18SrRNA by comparative CT method.

involucrin [4] = experiment: Involucrin protein fluorescence, normal human epidermal keratinocytes; assay type: cell-based; details: 10^−7 M
Procedure: Cells were seeded in 6-well Lab-Tek II chamber slides (Nalge Nunc, Inc., Naperville, Ill.). Cells were pre-incubated in Epilife medium with HKGS overnight and then stimulated with 20-hydroxycholecalciferol in Epilife medium with HKGS for 24 hours and then fixed with 4% paraformaldehyde in PBS for 10 minutes. The cells were permeabilized with 0.2% Triton-X 100 in PBS for 5 minutes and blocked with 1% bovine serum albumine (BSA; in PBS) for 30 minutes. The cells were incubated consecutively with mouse anti-human involucrin antibody (Novocastra, Newcastle upon Tyne, UK) for 3 hours, anti-mouse-fluorescein isothiocyanate (FITC) conjugate (Novocastra, Newcastle upon Tyne, UK) for 1 hour in buffer containing 1% BSA in PBS. The slides were extensively washed with PBS between stainings and mounted with Vectashield mounting medium with propidium iodide (Vector Laboratories, Burlingame, Calif.). Slides not incubated with primary antibody were used as background controls. Slides were viewed with NIKON Eclipse TE300 microscope (Melville, N.Y.).
Data are shown as mean±SD (n=10-20). **, p<0.01. ***, p<0.001.

human melanoma cells = experiment: Melanoma colony formation (crystal violet, 7 days); assay type: cell-based; details: colonies over 0.2 mm and 0.5 mm
Description: Inhibitory effects of 20(OH)D2 (FIGS. 47A-47B) in comparison to 1,25(OH)2D3 (FIGS. 47C-47D) on the ability of human melanoma cells to form colonies was examined.

[5] = tested on: immortalized normal epidermal melanocytes (PIG1 line); experiment: Proliferation of PIG1 melanocytes; assay type: cell-based; details: PIG1, 72 h
[6] = tested on: neonatal epidermal melanocytes; experiment: Proliferation of neonatal epidermal melanocytes; assay type: cell-based; details: 48 hours
[7] = tested on: SKMEL-188 human melanoma cells; experiment: Proliferation (DNA synthesis) of SKMEL-188; assay type: cell-based; details: SKMEL-188, 72 h
Procedure: as §1
(§2) HaCaT keratinocytes were an incubated for 48 h (FIG. 48A) or 72 h (FIG. 48B) in the presence of graded concentrations of 20(OH)D2 and/or 1,25(OH)2D3. […] Data are shown as mean±SD (n 3); *, p<0.05; **, p<0.01.

[8] = tested on: AbC1 hamster melanoma cells; experiment: Proliferation (DNA synthesis) of AbC1; assay type: cell-based; details: AbC1, 72 h
Procedure: as §1, §2

[9] = tested on: neonatal human epidermal keratinocytes (HEKn); experiment: [3H]-thymidine proliferation assay in HEKn; assay type: cell-based; details: 24 h, 0.1 nM
Procedure: Neonatal human epidermal keratinocytes (HEKn) were isolated form neonatal foreskin of African-American donors and grown in HKM (Lonza) medium supplemented with HKGF (Lonza) as described previously (8a,c). For the cell proliferation assay the cells from a third passage were seeded into 24-well plates (TPP, Switzerland) and grown until reaching ˜80% confluence. Secosteroids were dissolved in ethanol and then diluted in keratinocyte medium containing 0.1% BSA (Sigma). Cells were incubated for 24 h then 1 μCi/ml [^3H]-thymidine (Moravek Biochemicals Inc., Brea, Calif.) was added and cells were incubated for further 4 h. Excess of unbound thymidine was removed by washing cells with PBS. Cells were precipitated with 10% trichloroacetic acid (TCA) (Sigma) and then the precipitate dissolved with 1N NaOH. The solution was collected in vials and thymidine incorporation was determined in liquid scintillation counter (Beckman LS 6000, Santa Clara, Calif.).

bovine CYP11A1 = bovine CYP11A1 (Bos taurus, UniProt P00189); experiment: Metabolism by CYP11A1 (P450scc) in phospholipid vesicles; assay type: in vitro ADME; details: first 2 min of incubation
Chain of bovine CYP11A1 (P00189 40-520): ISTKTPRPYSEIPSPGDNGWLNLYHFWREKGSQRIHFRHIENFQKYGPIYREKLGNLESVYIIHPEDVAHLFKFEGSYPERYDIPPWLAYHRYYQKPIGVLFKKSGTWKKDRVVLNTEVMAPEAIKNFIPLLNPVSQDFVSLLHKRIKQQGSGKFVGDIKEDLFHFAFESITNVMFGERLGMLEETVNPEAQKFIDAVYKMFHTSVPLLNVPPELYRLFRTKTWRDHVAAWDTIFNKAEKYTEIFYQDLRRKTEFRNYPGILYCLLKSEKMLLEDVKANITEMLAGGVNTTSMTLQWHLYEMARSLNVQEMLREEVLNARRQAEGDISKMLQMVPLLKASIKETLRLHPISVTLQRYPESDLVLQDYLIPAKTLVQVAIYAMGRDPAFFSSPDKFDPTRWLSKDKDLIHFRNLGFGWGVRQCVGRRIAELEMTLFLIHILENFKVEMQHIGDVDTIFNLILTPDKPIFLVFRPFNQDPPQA
Procedure: (§3) Adrenodoxin was added last to initiate the reaction.
(§4) Products and remaining substrate were extracted with dichloromethane, and measured by reverse phase HPLC as described before (12, 13b).

human CYP27B1 = human CYP27B1 (Homo sapiens, UniProt O15528); experiment: Metabolism by CYP27B1 in phospholipid vesicles; assay type: in vitro ADME; details: up to 10 min
Chain of human CYP27B1 (O15528 whole entry): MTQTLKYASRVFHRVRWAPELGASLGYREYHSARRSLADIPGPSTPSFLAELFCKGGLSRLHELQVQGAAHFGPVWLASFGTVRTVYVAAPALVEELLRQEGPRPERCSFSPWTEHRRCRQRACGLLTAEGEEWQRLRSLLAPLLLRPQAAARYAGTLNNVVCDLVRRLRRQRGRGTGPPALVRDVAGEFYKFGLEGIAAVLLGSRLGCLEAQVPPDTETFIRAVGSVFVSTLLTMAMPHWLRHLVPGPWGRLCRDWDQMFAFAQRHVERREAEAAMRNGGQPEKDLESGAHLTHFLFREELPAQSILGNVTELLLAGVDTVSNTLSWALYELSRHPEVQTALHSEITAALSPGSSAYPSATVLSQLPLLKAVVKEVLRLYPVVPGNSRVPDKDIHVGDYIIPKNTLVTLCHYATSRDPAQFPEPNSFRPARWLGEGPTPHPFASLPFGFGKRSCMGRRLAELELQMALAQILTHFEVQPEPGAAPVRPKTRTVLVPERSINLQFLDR
Procedure: as §3, §4

[10] = substrate: C=C1CC[C@H](O)C/C1=C/C=C1\CCC[C@]2(C)[C@@H]([C@H](C)CCCC(C)C)CC[C@@H]12; experiment: cells, lysate or membranes named; details: other: cyclodextrin; 37.0 °C

C=C1C(=CC=C2CCCC3(C)C2CCC3C(C)(O)CCCC(C)C)CC(O)CC1O (stereo not drawn) [1α,20-dihydroxycholecalciferol, (5Z,7E)-9,10-secocholesta-5,7,10(19)-triene-1α,3β,20-triol]
decrease in DNA synthesis (HaCaT keratinocytes [1]; 0.1 nM): 30%
decrease in DNA synthesis (HaCaT keratinocytes [1]; 10 nM): 50%
keratinocyte proliferation compared with 1α,25-dihydroxycholecalciferol (HaCaT keratinocytes [1]; HaCaT, 48 h): inhibit keratinocyte proliferation more potently than the control compound
number of viable cells (sulforhodamine B) (HaCaT keratinocytes [2]): caused a decrease in number of viable cells
CYP24 mRNA level (CYP24; 0.1 μM, 6 h): Modest stimulation
CYP24 mRNA level (CYP24; 0.1 μM, 24 h): the effect was lost by 24 h
CYP24 mRNA level (CYP24; 1 μM, 6 h and 24 h): markedly increased the Cyp 24 mRNA level

(5Z,7E,22E)-9,10-secoergosta-5,7,9(10),22-tetraene-3β,20-diol [20(OH)D2]
involucrin gene expression (involucrin [3]): induced time dependant involucrin gene expression
involucrin protein expression (involucrin [4]): increased expression of involucrin protein
melanoma cell colony formation compared with 1,25(OH)2D3 (human melanoma cells): Inhibits Melanoma Cell Colony Formation Better than 1.25 OH 2D3
proliferation [5]: Dose dependent inhibition of the proliferation
proliferation [6]: Dose dependent inhibition of the proliferation
proliferation [7]: Dose dependent inhibition of the proliferation
proliferation [8]: Dose dependent inhibition of the proliferation

C=C1CCC(O)CC1=CC=C1CCCC2(C)C1CCC2C(C)(O)CCCC(C)C (stereo not drawn) [20R(OH)D3, (5Z,7E)-9,10-secocholesta-5,7,10(19)-triene-3β,20R-diol]
thymidine incorporation into DNA [9]: slightly stimulated thymidine incorporation into DNA
substrate consumed (bovine CYP11A1): 58%
metabolism by CYP27B1 (human CYP27B1): metabolized to a single product at comparable initial rates

B1: CYP27A1 (Homo sapiens) (protein)
chain: ALPSDKATGAPGAGPGVRRRQRSLEEIPRLGQLRFFFQLFVQGYALQLHQLQVLYKAKYGPMWMSYLGPQMHVNLASAPLLEQVMRQEGKYPVRNDMELWKEHRDQHDLTYGPFTTEGHHWYQLRQALNQRLLKPAEAALYTDAFNEVIDDFMTRLDQLRAESASGNQVSDMAQLFYYFALEAICYILFEKRIGCLQRSIPEDTVTFVRSIGLMFQNSLYATFLPKWTRPVLPFWKRYLDGWNAIFSFGKKLIDEKLEDMEAQLQAAGPDGIQVSGYLHFLLASGQLSPREAMGSLPELLMAGVDTTSNTLTWALYHLSKDPEIQEALHEEVVGVVPAGQVPQHKDFAHMPLLKAVLKETLRLYPVVPTNSRIIEKEIEVDGFLFPKNTQFVFCHYVVSRDPTAFSEPESFQPHRWLRNSQPATPRIQHPFGSVPFGYGVRACLGRRIAELEMQLLLARLIQKYKVVLAPETGELKSVARIVLVPNKKVGLQFLQRQC
Km [10]: 10.7 ± 3.1 µM
